Legend:
[1] = target: T1, 5-hydroxytryptamine receptor 1A (Homo sapiens, UniProt P08908)
T1 sequence (P08908 whole entry): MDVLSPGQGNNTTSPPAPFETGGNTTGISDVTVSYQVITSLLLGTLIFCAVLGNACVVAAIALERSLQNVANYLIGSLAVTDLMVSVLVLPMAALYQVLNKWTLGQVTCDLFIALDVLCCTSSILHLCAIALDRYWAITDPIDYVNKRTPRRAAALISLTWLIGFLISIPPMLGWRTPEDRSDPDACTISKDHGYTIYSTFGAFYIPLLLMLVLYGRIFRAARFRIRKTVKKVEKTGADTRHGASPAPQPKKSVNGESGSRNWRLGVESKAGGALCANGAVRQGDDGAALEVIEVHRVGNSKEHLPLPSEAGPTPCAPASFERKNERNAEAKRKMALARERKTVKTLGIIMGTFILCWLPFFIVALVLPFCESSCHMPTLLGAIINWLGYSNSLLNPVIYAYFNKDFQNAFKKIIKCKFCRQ

[2] = target: 5-hydroxytryptamine receptor 2B (Homo sapiens, UniProt P41595)
5-hydroxytryptamine receptor 2B, sequence (P41595 whole entry): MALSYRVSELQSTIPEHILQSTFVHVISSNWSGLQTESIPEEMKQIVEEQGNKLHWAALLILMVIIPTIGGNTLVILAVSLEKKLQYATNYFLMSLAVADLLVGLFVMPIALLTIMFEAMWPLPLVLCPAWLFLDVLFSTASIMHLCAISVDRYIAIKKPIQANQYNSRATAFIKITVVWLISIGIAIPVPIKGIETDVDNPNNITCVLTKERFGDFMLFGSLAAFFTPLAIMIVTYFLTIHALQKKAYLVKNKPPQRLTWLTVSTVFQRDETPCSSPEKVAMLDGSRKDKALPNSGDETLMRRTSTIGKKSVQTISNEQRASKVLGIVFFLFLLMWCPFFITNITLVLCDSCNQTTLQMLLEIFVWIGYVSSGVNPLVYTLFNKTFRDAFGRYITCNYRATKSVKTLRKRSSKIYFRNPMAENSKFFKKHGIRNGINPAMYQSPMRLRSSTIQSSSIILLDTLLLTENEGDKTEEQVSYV

[3] = target: Melanin-concentrating hormone receptor 1 (Homo sapiens, UniProt Q99705)
Melanin-concentrating hormone receptor 1, sequence (Q99705 as listed by the source): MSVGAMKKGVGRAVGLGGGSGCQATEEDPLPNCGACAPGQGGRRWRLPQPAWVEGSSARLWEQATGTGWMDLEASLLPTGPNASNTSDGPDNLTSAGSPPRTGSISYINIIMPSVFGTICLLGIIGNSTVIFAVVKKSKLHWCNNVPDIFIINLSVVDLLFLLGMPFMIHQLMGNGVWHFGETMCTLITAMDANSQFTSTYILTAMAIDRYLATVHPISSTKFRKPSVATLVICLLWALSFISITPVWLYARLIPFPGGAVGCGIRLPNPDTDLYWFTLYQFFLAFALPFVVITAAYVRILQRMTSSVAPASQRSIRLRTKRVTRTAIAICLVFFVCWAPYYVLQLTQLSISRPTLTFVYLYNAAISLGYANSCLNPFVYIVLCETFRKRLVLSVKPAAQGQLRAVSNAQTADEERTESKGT

Row | Structure (SMILES) | Ki [1] [nM] | Ki [2] [nM] | Ki [3] [nM]
1 | CN(C)c1nc(N[C@H]2CC[C@@H](NC(=O)c3ccc(F)c(F)c3)CC2)nc2ccccc12 [ATC0175] | 16.9 | 9.66 | 
2 | CN(C)c1nc(N[C@H]2CC[C@@H](NCCc3ccc(Br)cc3OC(F)(F)F)CC2)nc2ccccc12 [CAS_510732-84-0] |  | 266 | 15.7
